From patent US8642764B1, “Julolidine conjugates and methods for their preparation and use” (Jawaharlal Nehru Centre for Advanced Scientific Research, priority 2012, dated 2014) come the findings set out here.

Series [1] in a line: UV/Vis absorption and colorimetric titration with increasing concentrations of Cu^2+. The following applies: for extinction coefficient (ε) in the NIR region at maximum: at the Cu^2+ equivalents giving maximum NIR absorbance; for extinction coefficient (ε) at 570 nm at maximum: at the Cu^2+ equivalents giving maximum absorbance at 570 nm; for NIR λmax at maximum absorbance / final solution color: end of the Cu^2+ titration; for visual color change of solution: increasing concentration of Cu^2+ ions; for NIR band λmax / new absorption band in the visible region (λmax): on first appearance in the Cu^2+ titration (1.0 to 2.0 equivalents); for Cu^2+ added at which absorbance at 570 nm reached a maximum / Cu^2+ added at which absorbance in the NIR region reached a maximum: sequential titration, pH 7.2. Type of series: physicochemical. As for the experimental part: The spectral and colorimetric properties of bi-julolidine compounds were investigated by monitoring the absorption spectral behavior upon addition of increasing concentrations of Cu^2+ in an aqueous buffer medium (50 mM, 2-(4-(2-hydroxyethyl)-1-piperazin-yl)ethanesulfonic acid (HEPES)/CH3CN, 6:4, v/v; pH 7.2). During sequential titration, the absorption spectra of julolidine-carbonohydrazone compound in the visible region gradually shifted from 380 nm to 412 nm with the addition of 1.5 equivalents of Cu^2+ and the colorless solution turned to light green. Increasing the concentration of Cu^2+ in the solution of julolidine-carbonohydrazone compound from 1.5 to 2.0 equivalents led to a change in the solution color from light green to light purple. A new absorption band (λmax=570 nm) appeared in the visible region accompanied by a distinguishable NIR band with λmax centered at 930 nm. The absorbance at 570 nm reached a maximum upon addition of 6.0 equivalents of Cu^2+ with an extinction coefficient (ε) of 2×10^4 M^−1cm^−1 and then decreased with further addition of Cu^2+. The absorbance in the NIR region reached a maximum (ε=5.2×10^4 M^−1cm^−1) upon addition of a total of 8.0 equivalents of Cu^2+ with a gradual shift of λmax from 930 nm to 825 nm, and that remained unchanged upon further addition of Cu^2+. The final solution color of julolidine-carbonohydrazone compound was aqua colored.
During sequential titration of Cu^2+ with julolidine-thiocarbonohydrazone compound, two absorption bands appeared at 570 nm and 980 nm, after addition of 1.0 equivalent of Cu^2+. At that concentration of Cu^2+ ions, the color of the solution of julolidine-thiocarbonohydrazone compound changed from greenish to light purple. The absorbance at 570 nm and 980 nm were enhanced when Cu^2+ concentrations increased from 1.5 to 2.0 equivalents and the purple-colored solution turned to light violet. The absorbance at 570 nm reached a maximum at 5.0 equivalents of Cu^2+ with an extinction coefficient (ε) of 2×10^4 M^−1 cm^−1 and a consequent increase in the intensity of the NIR absorption band was observed. At that concentration of Cu^2+ ions, The solution color of julolidine-thiocarbonohydrazone compound changed from light violet to blue. […] The final solution color of julolidine-thiocarbonohydrazone compound was greenish aqua.

Series [2] can be described thus: Specificity of Schiff-base compounds towards Cu^2+ ions (absorption spectra). Conditions: for absorption band: absence of Cu^2+ ions; for characteristic absorbance in the NIR region / characteristic absorbance in the visible region: presence of Cu^2+ ions. Type of series: physicochemical. As for the experimental part: The specificity of bi-julolidine Schiff-base compounds, compound 1 and compound 2, in detecting Cu^2+ ions were investigated by monitoring the absorption spectral behavior of the compounds. The experiment was also performed using other Schiff-base compounds that were prepared by condensing different salicylaldehyde derivatives with carbohydrazide and thiocarbohydrazide (compounds 3-8, shown below).

Series [3] is described as follows: UV/Vis absorption spectra upon addition of metal ions. It is filed as physicochemical. The following applies: Cu^2+ 50.0 equiv; HEPES/CH3CN pH 7.2. As to the method:
The photophysical properties of bi-julolidine compounds were investigated by monitoring the absorption spectral behavior upon addition of several metal ions such as Li^+, Na^+, Ba^2+, Sr^2+, Mg^2+, Al^3+, Ca^2+, Mn^2+, Fe^2+, Co^2+, Ni^2+, Zn^2+, Ag^+, Cd^2+, Hg^2+, Pb^2+ and Cu^2+ in an aqueous buffer medium (50 mM, 2-(4-(2-hydroxyethyl)-1-piperazin-yl)ethanesulfonic acid (HEPES)/CH3CN, 6:4, v/v; pH 7.2). […] With the addition of 50.0 equivalents of Co^2+, Ni^2+and Zn^2+, the absorbance intensity decreased and slightly red shifted to different extents (Ni^2+=408.5 nm; Zn^2+=410 nm; Co^2+=409 nm).
Representative examples are shown in FIG. 1 and FIG. 2 using compound 1 and 2, respectively.

Series [4] is described as follows: Fluorometric detection of copper ions. It is filed as physicochemical. The following applies: for fluorescence emission: excitation at 430 nm, no metal ion. As to the method: The fluorometric behavior of julolidine-thiocarbonohydrazone compound was studied upon addition of 20.0 equivalents of Li^+, Na^+, Ba^2+, Sr^2+, Mg^2+, […], Ca^2+, Mn^2+, Fe^2+, CO^2+, Ni^2+, Zn^2+, Ag^+, Cd^2+, Hg^2+, Pb^2+ and Cu^2+ in an aqueous buffer medium (50 mM, 2-(4-(2-hydroxyethyl)-1-piperazin-yl)ethanesulfonic acid (HEPES)/CH3CN, 6:4, v/v; pH 7.2). […] The quenched fluorescence of julolidine-thiocarbonohydrazone compound was restored upon treating the julolidine-thiocarbonohydrazone compound —Cu^2+ complex with ethylenediaminetetraacetic acid (EDTA). Fluorescence emission of compound 2 with sequential addition of increasing concentrations (0 to 50 μM) of Cu^2+ is shown in FIG. 5B.

The next series has as its system HEK 293T cells. Kind of series: Detection of Cu^2+ ions in cells using fluorescence microscopy. Type of series: cell-based. As to the method:
HEK 293T cells were grown to 50% confluency in a 30 mm dish containing Dulbecco's modified eagle medium (DMEM) and 10% fetal bovine serum (FBS) at 37° C. and 5% CO2. The cells were washed three times with phosphate-buffered saline (PBS) and stained with julolidine-thiocarbonohydrazone compound (10 μM final concentration) in the growth media without FBS for 10 minutes. The adherent cells were washed three times with PBS to remove excess compound. […] Further, the excess of Cu—(ClO4)2.6H2O was washed off with PBS and then supplemented with EDTA (10 μM) in DMEM without FBS for 10 minutes.

As to `O=C(N/N=C/c1cc2c3c(c1O)CCCN3CCC2)N/N=C/c1cc2c3c(c1O)CCCN3CCC2` [compound 1, julolidine-carbonohydrazone], in series [1] (addition of 1.5 equivalents of Cu^2+), the “absorption in the visible region, shifted from 380 nm” value turned out to be 412 nm. For the same molecule, in series [1], the “extinction coefficient (ε) in the NIR region at maximum” value came to 52000 M⁻¹ cm⁻¹, the “extinction coefficient (ε) at 570 nm at maximum” value was found to be 20000 M⁻¹ cm⁻¹, the “NIR λmax at maximum absorbance” value amounted to 825 nm and the final solution color entry is reported as “aqua colored”. For the same molecule, in series [1], the “visual color change of solution” value was “light green, then to light purple, and then to aqua color”; the “NIR band λmax” value is 930 nm; the “new absorption band in the visible region (λmax)” value stood at 570 nm; the “Cu^2+ added at which absorbance at 570 nm reached a maximum” value was 6.0 equivalents. In series [1], the “Cu^2+ added at which absorbance in the NIR region reached a maximum” value came out at 8.0 equivalents. In addition, in series [2], the absorption band result was “around 380 nm”, the “characteristic absorbance in the NIR region” value is 825 nm and the “characteristic absorbance in the visible region” value is 495 nm. In series [3], the “characteristic absorbance in the NIR region” value was determined as 823 nm and the “characteristic absorbance in the visible region” value is given as 495 nm.

As for `Oc1c(/C=N/NC(=S)N/N=C/c2cc3c4c(c2O)CCCN4CCC3)cc2c3c1CCCN3CCC2` [compound 2, julolidine-thiocarbonohydrazone], in series [1], the “extinction coefficient (ε) in the NIR region at maximum” value turned out to be 52000 M⁻¹ cm⁻¹, the “extinction coefficient (ε) at 570 nm at maximum” value turned out to be 20000 M⁻¹ cm⁻¹, the “NIR λmax at maximum absorbance” value came to 820 nm and the final solution color result was “greenish aqua”. In addition, in series [1], the “visual color change of solution” value was “from light green to light violet, then to light blue and then to greenish aqua”; the “NIR band λmax” value worked out at 980 nm; the “new absorption band in the visible region (λmax)” value is listed as 570 nm; the “Cu^2+ added at which absorbance at 570 nm reached a maximum” value is 5.0 equivalents. In addition, the “Cu^2+ added at which absorbance in the NIR region reached a maximum” value in series [1] was found to be 15.0 equivalents. Further, in series [2], the absorption band result is given as “around 380 nm”, the “characteristic absorbance in the NIR region” value is 825 nm and the “characteristic absorbance in the visible region” value stood at 570 nm. For the same molecule, in series [4] (20.0 equivalents of Li+, Na+, Ba2+, Sr2+, Mg2+, Ca2+, Mn2+, Fe2+, Co2+, Ni2+, Zn2+, Ag+, Cd2+, Hg2+, Pb2+), the “fluorescence emission in the presence of other metal ions” value was “no significant changes”. Further, the “fluorescence intensity around 535 nm in the presence of Cu^2+” value in series [4] (430 nm excitation, 20.0 equivalents of Cu^2+) is recorded as “quenched”. Further, in series [4] (EDTA), the “quenched fluorescence after treating the Cu^2+ complex with EDTA” value is recorded as “restored”. For the same molecule, the fluorescence emission result in series [4] is “about 535 nm”. In addition, in series [4] (listed as Julolidine-thiocarbonohydrazone compound), the fluorescence emission result was “around 535 nm”. Moreover, in series [3], the “characteristic absorbance in the NIR region” value is “around 820 nm” and the “characteristic absorbance in the visible region” value stood at 570 nm. Moreover, the “fluorescence in cells after staining” value with HEK 293T cells (10 μM, 10 minutes, HEK 293T) is reported as “presence of fluorescent julolidine-thiocarbonohydrazone compound in cells”. Further, the “intracellular fluorescence after Cu^2+ supplementation” value in the series with HEK 293T cells (Cu(ClO4)2.6H2O 10 μM, 10 minutes) is “complete suppression of intracellular fluorescence”. In addition, the “intracellular fluorescence after EDTA” value with HEK 293T cells (EDTA 10 μM, 10 minutes, after Cu^2+ was washed off) is on record as “recovery of intracellular fluorescence”. Further, the cell permeability result with HEK 293T cells (HEK 293T living cells) was “cell-permeable”.
